Test results taken from US20100267561A1, “HERBICIDAL PYRIDAZINONE DERIVATIVES” (priority 2007, published 2010).

Columns and labels:
Test in all cases: Test B pre-/postemergence plant response
Type in all cases: in vivo
[1] = test system: pigweed (Amaranthus retroflexus)
Procedure, shortened: (§1)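 Visual scoring from 0 (no effect) to 100 (complete control) against untreated controls was done 13 to 15 days after greenhouse treatment. Chemicals were formulated in a surfactant-containing non-phytotoxic solvent and applied to soil preemergence or to 1- to 4-leaf (2-18 cm) plants postemergence.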

[2] = test system: green foxtail (Setaria viridis)
Procedure, shortened: as §1

[3] = test system: surinam grass (Brachiaria decumbens)
Procedure, shortened: as §1

[4] = test system: catchweed bedstraw (Galium aparine); conditions: Preemergence; for Galium plant response rating: scale 0 to 100
Procedure, shortened: as §1

[5] = test system: downy bromegrass (Bromus tectorum); conditions: for Bromegrass, Downy plant response rating: 8 g ai/ha
Procedure, shortened: as §1

[6] = test system: woolly cupgrass (Eriochloa villosa)
Procedure, shortened: as §1

[7] = test system: morningglory (Ipomoea coccinea)
Procedure, shortened: as §1

[8] = test system: eastern black (E.B.) nightshade (Solanum ptycanthum); conditions: Preemergence; for Nightshade, E. B. plant response rating: scale 0 to 100
Procedure, shortened: as §1

[9] = test system: johnsongrass (Sorghum halepense)
Procedure, shortened: as §1

[10] = test system: giant foxtail (Setaria faberii)
Procedure, shortened: as §1

corn (Zea mays) = test system: corn (Zea mays)
Procedure, shortened: as §1

[11] = test system: common (oilseed) sunflower (Helianthus annuus); conditions: Preemergence; for Sunflower plant response rating: scale 0 to 100
Procedure, shortened: as §1

kochia (Kochia scoparia) = test system: kochia (Kochia scoparia)
Procedure, shortened: as §1

[12] = test system: blackgrass (Alopecurus myosuroides); conditions: for Blackgrass plant response rating: 8 g ai/ha
Procedure, shortened: as §1

[13] = 8 g ai/ha, postemergence, 0-100 scale
[14] = Postemergence, 16 g ai/ha, scale 0 to 100
[15] = Postemergence, 31 g ai/ha, scale 0 to 100
[16] = Postemergence, 62 g ai/ha, scale 0 to 100, 0 no effect, 100 complete control
[17] = Preemergence, 31 g ai/ha, scale 0 to 100 (0 no effect, 100 complete control)
[18] = Preemergence, 62 g ai/ha, 0 to 100 scale, 0 no effect, 100 complete control
[19] = Preemergence, 8 g ai/ha, scale 0 to 100
[20] = Preemergence, 16 g ai/ha, scale 0 to 100
[21] = 31 g ai/ha, scale 0 to 100 (0 no effect, 100 complete control)
[22] = 62 g ai/ha, 0 to 100 scale, 0 no effect, 100 complete control
[23] = Preemergence, 16 g ai/ha, scale 0 to 100 (0 no effect, 100 complete control)
[24] = 16 g ai/ha, postemergence, 0-100 scale

CCCC(=O)Oc1cnn(C)c(=O)c1-n1nc(-c2ccc(Cl)cc2)cc1C [Compound 56]
0: Pigweed plant response rating [1, 13] | Plant response rating, Pigweed [1, 14] | Plant response rating, Pigweed [1, 15] | Plant response rating, Pigweed [1, 16] | Plant response rating, Pigweed [1, 17] | Plant response rating, Pigweed [1, 18] | Pigweed plant response rating [1, 19] | Pigweed plant response rating [1, 20] | Plant response rating, Galium [4, 21] | Plant response rating, Galium [4, 22] | Galium plant response rating ([4]; 8 g ai/ha) | Galium plant response rating ([4]; 16 g ai/ha) | Bromegrass, Downy plant response rating ([5]; postemergence, 0-100 scale) | Plant response rating, Bromegrass, Downy [5, 14] | Plant response rating, Bromegrass, Downy [5, 15] | Plant response rating, Bromegrass, Downy [5, 16] | Bromegrass, Downy plant response rating ([5]; Preemergence, scale 0 to 100) | Cupgrass, Woolly plant response rating [6, 19] | Morningglory plant response rating [7, 13] | Plant response rating, Morningglory [7, 14] | Plant response rating, Morningglory [7, 15] | Plant response rating, Morningglory [7, 16] | Plant response rating, Morningglory [7, 17] | Plant response rating, Morningglory [7, 18] | Morningglory plant response rating [7, 19] | Morningglory plant response rating [7, 20] | Plant response rating, Nightshade, E. B. [8, 21] | Nightshade, E. B. plant response rating ([8]; 8 g ai/ha) | Nightshade, E. B. plant response rating ([8]; 16 g ai/ha) | Johnsongrass plant response rating [9, 13] | Corn plant response rating (corn (Zea mays); [19]) | Plant response rating, Sunflower [11, 21] | Plant response rating, Sunflower [11, 22] | Sunflower plant response rating ([11]; 8 g ai/ha) | Sunflower plant response rating ([11]; 16 g ai/ha) | Kochia plant response rating (kochia (Kochia scoparia); [13]) | Plant response rating, Kochia (kochia (Kochia scoparia); [14]) | Plant response rating, Kochia (kochia (Kochia scoparia); [15]) | Plant response rating, Kochia (kochia (Kochia scoparia); [16]) | Kochia plant response rating (kochia (Kochia scoparia); [19]) | Blackgrass plant response rating ([12]; postemergence, 0-100 scale)
80: Cupgrass, Woolly plant response rating [6, 20]
45: Plant response rating, Bromegrass, Downy [5, 17]
60: Johnsongrass plant response rating [9, 19] | Plant response rating, Blackgrass [12, 23]
20: Plant response rating, Bromegrass, Downy [5, 23] | Plant response rating, Nightshade, E. B. [8, 22] | Kochia plant response rating (kochia (Kochia scoparia); [20])
50: Foxtail, Green plant response rating [2, 13]
10: Corn plant response rating (corn (Zea mays); [20])
65: Foxtail, Green plant response rating [2, 19] | Foxtail, Green plant response rating [2, 20] | Plant response rating, Johnsongrass [9, 14] | Johnsongrass plant response rating [9, 20] | Plant response rating, Blackgrass [12, 14]
98: Plant response rating, Surinam Grass [3, 15] | Plant response rating, Foxtail, Giant [10, 14] | Plant response rating, Foxtail, Giant [10, 15] | Plant response rating, Kochia (kochia (Kochia scoparia); [17]) | Plant response rating, Blackgrass [12, 16] | Plant response rating, Blackgrass [12, 17] | Plant response rating, Blackgrass [12, 18]
90: Plant response rating, Foxtail, Green [2, 14] | Plant response rating, Foxtail, Green [2, 15] | Surinam Grass plant response rating [3, 20]
95: Cupgrass, Woolly plant response rating [6, 13] | Foxtail, Giant plant response rating [10, 19] | Plant response rating, Corn (corn (Zea mays); [15]) | Plant response rating, Corn (corn (Zea mays); [16]) | Plant response rating, Corn (corn (Zea mays); [17]) | Plant response rating, Corn (corn (Zea mays); [18]) | Plant response rating, Blackgrass [12, 15]
75: Plant response rating, Surinam Grass [3, 14] | Surinam Grass plant response rating [3, 19] | Plant response rating, Bromegrass, Downy [5, 18] | Foxtail, Giant plant response rating [10, 13] | Corn plant response rating (corn (Zea mays); [13])
70: Surinam Grass plant response rating [3, 13] | Plant response rating, Johnsongrass [9, 17]
85: Plant response rating, Johnsongrass [9, 15] | Plant response rating, Corn (corn (Zea mays); [14])
40: Blackgrass plant response rating ([12]; Preemergence, scale 0 to 100)
100: Plant response rating, Foxtail, Green [2, 16] | Plant response rating, Foxtail, Green [2, 17] | Plant response rating, Foxtail, Green [2, 18] | Plant response rating, Surinam Grass [3, 16] | Plant response rating, Surinam Grass [3, 17] | Plant response rating, Surinam Grass [3, 18] | Plant response rating, Cupgrass, Woolly [6, 14] | Plant response rating, Cupgrass, Woolly [6, 15] | Plant response rating, Cupgrass, Woolly [6, 16] | Plant response rating, Cupgrass, Woolly [6, 17] | Plant response rating, Cupgrass, Woolly [6, 18] | Plant response rating, Johnsongrass [9, 16] | Plant response rating, Johnsongrass [9, 18] | Plant response rating, Foxtail, Giant [10, 16] | Plant response rating, Foxtail, Giant [10, 17] | Plant response rating, Foxtail, Giant [10, 18] | Foxtail, Giant plant response rating [10, 20] | Plant response rating, Kochia (kochia (Kochia scoparia); [18])

CCc1cc(-c2ccc(C(F)(F)F)cc2)nn1-c1c(O)c(OC)nn(C)c1=O [Compound 66]
0: Pigweed plant response rating [1, 13] | Pigweed plant response rating [1, 24] | Plant response rating, Pigweed [1, 15] | Plant response rating, Pigweed [1, 16] | Plant response rating, Pigweed [1, 17] | Pigweed plant response rating [1, 19] | Pigweed plant response rating [1, 20] | Surinam Grass plant response rating [3, 19] | Plant response rating, Galium [4, 21] | Plant response rating, Galium [4, 22] | Galium plant response rating ([4]; 8 g ai/ha) | Galium plant response rating ([4]; 16 g ai/ha) | Cupgrass, Woolly plant response rating [6, 19] | Morningglory plant response rating [7, 13] | Morningglory plant response rating [7, 24] | Plant response rating, Morningglory [7, 15] | Plant response rating, Morningglory [7, 16] | Plant response rating, Morningglory [7, 17] | Plant response rating, Morningglory [7, 18] | Morningglory plant response rating [7, 19] | Morningglory plant response rating [7, 20] | Plant response rating, Nightshade, E. B. [8, 21] | Plant response rating, Nightshade, E. B. [8, 22] | Nightshade, E. B. plant response rating ([8]; 8 g ai/ha) | Nightshade, E. B. plant response rating ([8]; 16 g ai/ha) | Foxtail, Giant plant response rating [10, 19] | Corn plant response rating (corn (Zea mays); [19]) | Plant response rating, Sunflower [11, 21] | Plant response rating, Sunflower [11, 22] | Sunflower plant response rating ([11]; 8 g ai/ha) | Sunflower plant response rating ([11]; 16 g ai/ha) | Kochia plant response rating (kochia (Kochia scoparia); [13]) | Kochia plant response rating (kochia (Kochia scoparia); [24]) | Plant response rating, Kochia (kochia (Kochia scoparia); [15]) | Plant response rating, Kochia (kochia (Kochia scoparia); [16])
90: Cupgrass, Woolly plant response rating [6, 13] | Plant response rating, Cupgrass, Woolly [6, 17] | Plant response rating, Corn (corn (Zea mays); [15]) | Blackgrass plant response rating ([12]; postemergence, 0-100 scale) | Blackgrass plant response rating ([12]; Preemergence, scale 0 to 100)
80: Foxtail, Green plant response rating [2, 13] | Surinam Grass plant response rating [3, 20] | Bromegrass, Downy plant response rating ([5]; postemergence, 0-100 scale) | Cupgrass, Woolly plant response rating [6, 20]
85: Plant response rating, Bromegrass, Downy [5, 23] | Bromegrass, Downy plant response rating ([5]; Preemergence, scale 0 to 100) | Foxtail, Giant plant response rating [10, 13]
98: Foxtail, Green plant response rating [2, 19] | Surinam Grass plant response rating [3, 24] | Plant response rating, Surinam Grass [3, 17] | Plant response rating, Surinam Grass [3, 18] | Plant response rating, Bromegrass, Downy [5, 15] | Plant response rating, Bromegrass, Downy [5, 16] | Plant response rating, Cupgrass, Woolly [6, 18] | Plant response rating, Johnsongrass [9, 17] | Plant response rating, Foxtail, Giant [10, 14] | Plant response rating, Corn (corn (Zea mays); [17])
70: Johnsongrass plant response rating [9, 19] | Corn plant response rating (corn (Zea mays); [20])
65: Corn plant response rating (corn (Zea mays); [13])
45: Foxtail, Giant plant response rating [10, 20]
75: Johnsongrass plant response rating [9, 13] | Plant response rating, Corn (corn (Zea mays); [14])
100: Plant response rating, Foxtail, Green [2, 14] | Plant response rating, Foxtail, Green [2, 15] | Plant response rating, Foxtail, Green [2, 16] | Plant response rating, Foxtail, Green [2, 17] | Plant response rating, Foxtail, Green [2, 18] | Foxtail, Green plant response rating [2, 20] | Plant response rating, Surinam Grass [3, 15] | Plant response rating, Surinam Grass [3, 16] | Plant response rating, Bromegrass, Downy [5, 17] | Plant response rating, Bromegrass, Downy [5, 18] | Plant response rating, Cupgrass, Woolly [6, 15] | Plant response rating, Cupgrass, Woolly [6, 16] | Johnsongrass plant response rating [9, 24] | Plant response rating, Johnsongrass [9, 15] | Plant response rating, Johnsongrass [9, 16] | Plant response rating, Johnsongrass [9, 18] | Plant response rating, Foxtail, Giant [10, 15] | Plant response rating, Foxtail, Giant [10, 16] | Plant response rating, Corn (corn (Zea mays); [16]) | Plant response rating, Corn (corn (Zea mays); [18]) | Plant response rating, Blackgrass [12, 14] | Plant response rating, Blackgrass [12, 15] | Plant response rating, Blackgrass [12, 16] | Plant response rating, Blackgrass [12, 23] | Plant response rating, Blackgrass [12, 17] | Plant response rating, Blackgrass [12, 18]
95: Plant response rating, Pigweed [1, 18] | Surinam Grass plant response rating [3, 13] | Plant response rating, Bromegrass, Downy [5, 14] | Plant response rating, Cupgrass, Woolly [6, 14] | Johnsongrass plant response rating [9, 20] | Plant response rating, Foxtail, Giant [10, 17] | Plant response rating, Foxtail, Giant [10, 18]
